Data set [1] deals with Aβ40 in CSF. Kind of data set: First-in-human single and multiple ascending oral dose study: Aβ40 in CSF. In kind it is in vivo. The conditions noted are these: for Dose-dependent lowering of Aβ40 concentrations in CSF, up to: healthy elderly subjects. The method, then:
The purpose of this study was to determine the single and multiple maximum tolerated dose of Compound 1 and to assess the pharmacokinetic/pharmacodynamic (PK/PD) relationship using Aβ in CSF as primary PD biomarker.
Pharmacodynamic assessments using Aβ concentrations in CSF as primary biomarker of drug action were also been applied in healthy elderly subjects. Dose-dependent lowering of Aβ40 concentrations was determined up to approximately 80% and 90% after single and multiple dosing, respectively (Tables 9 and 10, FIG. 7).
In the completed first-in-human and 3-month dose-ranging safety and tolerability clinical studies described in Examples 3 and 4, Aβ concentrations in CSF were obtained by means of lumbar punctures before the first dose (baseline) and respectively after 2 weeks and 3 months of multiple dosing. ApoE4 genotype also was obtained in the subjects who consented. The percent change from baseline in Aβ40 and Aβ42 concentrations was calculated in subjects who took the study treatment and had no major protocol deviation with potential impact on the evaluation of the pharmacodynamic effect. Tables 13 to 16 below provide summary statistics of the percent change from baseline by treatment group and ApoE genotype (E4 heterozygotes versus E4 non-carriers). Only one subject with CSF data was E4 homozygote (from the 3-month dose-ranging safety and tolerability study).

Data set [2] in a line: 13-week oral safety study in aged APP23 mice: plasma and brain concentrations of Compound 1 (toxicokinetics). In kind it is in vivo. The conditions noted are these: female, APP23, mouse, 0.3 g/kg food. The procedure: Sections of brain were collected at necropsy from all scheduled animals. […] Rest of the brain was fixed in 10% neutral-buffered formalin.
Blood was obtained from all the animals at necropsy. Approximately 0.3 mL of whole blood was collected after euthanasia from the vena cava into tubes containing EDTA as anticoagulant. The tubes were placed in ice water during the sampling period. Plasma was separated thereafter by centrifugation (10 min, 1270 G, +4° C.) and transferred to one uniquely labelled clear tube (1.8 mL NUNC 2D coded tubes from Thermo) and frozen at −70° C. or below.
About 100 to 200 mg of brain tissue were collected, weighed into 1.8 mL NUNC 2D coded tubes from Thermo, and frozen at −70° C. or below.

Data set [3] can be described thus: Off-target binding or activity.

Turning to `C[C@@]1(c2nc(NC(=O)c3ncc(C(F)(F)F)cc3Cl)ccc2F)CO[C@@](C)(C(F)(F)F)C(N)=N1` [Compound 1, N-(6-((3R,6R)-5-amino-3,6-dimethyl-6-(trifluoromethyl)-3,6-dihydro-2H-1,4-oxazin-3-yl)-5-fluoropyridin-2-yl)-3-chloro-5-(trifluoromethyl)picolinamide], the “Dose-dependent lowering of Aβ40 concentrations in CSF, up to” value is on record as approximately 90% in data set [1] (multiple dosing) and “approximately 80%” in data set [1] (single dosing). Further, in data set [1] (single dose 10 mg, 24 h), the “Aβ40 in CSF percent change from baseline, Median” value is on record as −14.3%. Besides, the concentration at 13 weeks in data set [2] (brain (cerebellum, level 7), end of the study) amounted to 4030 ng/g; in data set [2] (plasma, end of the study), 1210 ng/mL. The Kp at 96 day in data set [2] (brain / plasma, day 96, read-out: brain concentration compared to plasma, range) lay in the range of 2.2 to 6.1. Moreover, the Kp at 13 weeks in data set [2] (brain / plasma, end of the study, read-out: average of the ratio brain over plasma) stood at 3.3. For the same molecule, in data set [3], the “off-target binding or activity” value was “no relevant off-target binding or activity”.
